Each molecule was assayed against T1, pure recombinant PKM2 (Homo sapiens, UniProt P14618) (assay: LDH-coupled pyruvate kinase assay, NADH absorbance […] nm). Details: 0.2 mM PEP, 2 mM ADP, 5 mM MgCl2, 100 mM KCl, pH 7.4, 37 °C; no FBP; allosteric inhibitor.
T1 construct: gene PKM; PKM2 cDNA in pQE-30, 6xHis tag (removal not mentioned), expressed in E. coli M15 (pREP4), Ni-NTA purified
T1 sequence (P14618 2-531): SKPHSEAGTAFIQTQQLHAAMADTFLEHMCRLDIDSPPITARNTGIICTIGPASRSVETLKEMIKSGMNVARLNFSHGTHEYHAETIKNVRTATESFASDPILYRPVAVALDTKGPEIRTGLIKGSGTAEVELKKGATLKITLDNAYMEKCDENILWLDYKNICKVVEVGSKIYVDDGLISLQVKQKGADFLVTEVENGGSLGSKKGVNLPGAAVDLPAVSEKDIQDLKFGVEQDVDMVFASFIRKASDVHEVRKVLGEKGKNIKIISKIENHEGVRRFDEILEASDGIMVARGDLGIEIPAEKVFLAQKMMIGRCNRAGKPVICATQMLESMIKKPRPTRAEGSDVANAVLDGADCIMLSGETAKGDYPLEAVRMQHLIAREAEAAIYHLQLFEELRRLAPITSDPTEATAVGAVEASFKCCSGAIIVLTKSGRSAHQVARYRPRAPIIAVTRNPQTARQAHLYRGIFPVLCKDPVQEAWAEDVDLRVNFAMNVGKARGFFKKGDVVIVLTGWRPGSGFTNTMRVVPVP
Assay type: biochemical
In the case of `C[C@H](N)C(=O)O` [Alanine], the IC50 is reported as 227 ± 174 µM. `N[C@@H](Cc1ccccc1)C(=O)O` [Phenylalanine] showed an IC50 of 40.9 ± 13.4 µM. Molecule `N[C@@H](Cc1c[nH]c2ccccc12)C(=O)O` [Tryptophan] has an IC50 of 254 ± 104 µM. With `CC(C)[C@H](N)C(=O)O` [Valine] the IC50 was 373 ± 175 µM.

These molecules were tested against T1, pure recombinant PKM2 in the same assay as above. Details: 0.2 mM PEP, 2 mM ADP, 5 mM MgCl2, 100 mM KCl, pH 7.4, 37 °C; no inhibitor mixture; allosteric activator.
Assay type: biochemical
With `O=P(O)(O)OC[C@H]1OC(O)(COP(=O)(O)O)[C@@H](O)[C@@H]1O` (stereo partly drawn) [FBP] the AC50 was 0.0434 ± 0.0217 µM. `N[C@@H](CO)C(=O)O` [Serine] was tested, and the AC50 was 339 ± 123 µM.

Source: article doi:10.1101/2022.07.07.499167v1, “The thermodynamic state of aerobic glycolytic flux plays a critical role in stabilizing aerobic glycolytic flux of cancer cells” (biorxiv, 2022)
